Our source for the EC50 values is patent US9655904B2, “Substituted benzoazepines as toll-like receptor modulators” (VentiRx Pharmaceuticals, Inc., priority 2009, dated 2017).

Broadly, the EC50 is the concentration that produces a half-maximal response.

Holding throughout (format): cell-based
In experiment [1] the target is T1, TLR8 (Homo sapiens, UniProt Q9NR97).
T1 sequence (Q9NR97 27-1041): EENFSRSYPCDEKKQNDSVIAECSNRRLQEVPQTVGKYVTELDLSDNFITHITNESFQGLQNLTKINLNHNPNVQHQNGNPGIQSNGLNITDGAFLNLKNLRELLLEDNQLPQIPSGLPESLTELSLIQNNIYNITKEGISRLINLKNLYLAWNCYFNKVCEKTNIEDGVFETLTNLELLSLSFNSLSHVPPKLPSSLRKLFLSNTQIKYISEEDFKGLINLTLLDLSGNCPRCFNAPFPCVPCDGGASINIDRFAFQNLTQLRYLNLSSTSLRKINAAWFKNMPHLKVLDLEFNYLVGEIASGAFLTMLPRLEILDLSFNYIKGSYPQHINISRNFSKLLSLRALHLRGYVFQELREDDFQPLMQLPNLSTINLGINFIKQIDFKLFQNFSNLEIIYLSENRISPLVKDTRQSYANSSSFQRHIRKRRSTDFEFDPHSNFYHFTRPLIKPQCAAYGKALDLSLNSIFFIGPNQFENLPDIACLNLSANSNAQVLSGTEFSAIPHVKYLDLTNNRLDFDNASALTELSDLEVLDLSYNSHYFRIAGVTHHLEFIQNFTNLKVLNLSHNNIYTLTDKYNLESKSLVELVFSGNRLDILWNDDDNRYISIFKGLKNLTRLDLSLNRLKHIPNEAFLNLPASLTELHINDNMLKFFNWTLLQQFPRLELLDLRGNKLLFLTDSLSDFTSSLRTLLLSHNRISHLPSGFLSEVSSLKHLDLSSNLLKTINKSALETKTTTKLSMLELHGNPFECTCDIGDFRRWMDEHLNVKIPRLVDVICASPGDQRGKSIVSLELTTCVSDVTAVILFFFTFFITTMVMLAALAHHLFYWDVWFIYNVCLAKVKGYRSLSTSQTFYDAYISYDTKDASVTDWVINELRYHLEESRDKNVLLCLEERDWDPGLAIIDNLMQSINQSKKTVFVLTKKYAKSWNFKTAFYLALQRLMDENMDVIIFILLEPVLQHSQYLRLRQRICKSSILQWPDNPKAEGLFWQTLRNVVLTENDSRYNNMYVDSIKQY
The experiment is described as follows: MC50 values for TLR8 activity (test not specified; procedures of Gorden et al. and Zhu et al.). The text has this: (§1) Activity of the compounds can be assessed according to procedures described in, e.g., Gorden et al., Journal of Immunology 177, pp. 8164-8170 (2006) and Zhu et al., Molecular Immunology, vol. 45 (11), pp. 3238-3242 (2008).
MC50 values for TLR8 activity are, for example, as shown below: […]

Experiment [2] deals with T1, TLR8. The experiment is described as follows: PBMC assay for TLR8 (TNFα in supernatants by ELISA). The arrangement: Peripheral blood mononuclear cells (PBMCs) from human blood were isolated; endogenous in cells; host or cells: human PBMCs. Particulars: human PBMCs incubated with compound overnight, MC50 = concentration at which 50% of maximum induction is seen. The method, then: (§2) Peripheral blood mononuclear cells (PBMCs) from human blood were isolated using BD Vacutainer Cell Preparation Tubes with sodium citrate. Cells were incubated with compound overnight. TLR8 activity was assayed by measuring the amount of TNFα in supernatants by ELISA. TLR7 activity was assayed by measuring the amount of IFNα in supernatants by ELISA (R&D Systems). […] The results of this assay are shown below in Tables 2 and 3.
(§3) MC50 numbers are represented as factors of ten, for example, + indicates an MC50 value of X 10^4, or a value in the tens of thousands of nanomolar (nM range); ++ indicates an MC50 value of X 10^3, or a value in the thousands; +++ indicates an MC50 value of X 10^2, or a value in the hundreds; and ++++ indicates an MC50 value of X 10^1 or 10^0, or a value in the tens or ones.
In general terms: In an ELISA, binding on a coated surface is turned into a signal by an enzyme label.

Experiment [3] has as its target T2, TLR7 (Homo sapiens, UniProt Q9NYK1).
T2 sequence (Q9NYK1 27-1049): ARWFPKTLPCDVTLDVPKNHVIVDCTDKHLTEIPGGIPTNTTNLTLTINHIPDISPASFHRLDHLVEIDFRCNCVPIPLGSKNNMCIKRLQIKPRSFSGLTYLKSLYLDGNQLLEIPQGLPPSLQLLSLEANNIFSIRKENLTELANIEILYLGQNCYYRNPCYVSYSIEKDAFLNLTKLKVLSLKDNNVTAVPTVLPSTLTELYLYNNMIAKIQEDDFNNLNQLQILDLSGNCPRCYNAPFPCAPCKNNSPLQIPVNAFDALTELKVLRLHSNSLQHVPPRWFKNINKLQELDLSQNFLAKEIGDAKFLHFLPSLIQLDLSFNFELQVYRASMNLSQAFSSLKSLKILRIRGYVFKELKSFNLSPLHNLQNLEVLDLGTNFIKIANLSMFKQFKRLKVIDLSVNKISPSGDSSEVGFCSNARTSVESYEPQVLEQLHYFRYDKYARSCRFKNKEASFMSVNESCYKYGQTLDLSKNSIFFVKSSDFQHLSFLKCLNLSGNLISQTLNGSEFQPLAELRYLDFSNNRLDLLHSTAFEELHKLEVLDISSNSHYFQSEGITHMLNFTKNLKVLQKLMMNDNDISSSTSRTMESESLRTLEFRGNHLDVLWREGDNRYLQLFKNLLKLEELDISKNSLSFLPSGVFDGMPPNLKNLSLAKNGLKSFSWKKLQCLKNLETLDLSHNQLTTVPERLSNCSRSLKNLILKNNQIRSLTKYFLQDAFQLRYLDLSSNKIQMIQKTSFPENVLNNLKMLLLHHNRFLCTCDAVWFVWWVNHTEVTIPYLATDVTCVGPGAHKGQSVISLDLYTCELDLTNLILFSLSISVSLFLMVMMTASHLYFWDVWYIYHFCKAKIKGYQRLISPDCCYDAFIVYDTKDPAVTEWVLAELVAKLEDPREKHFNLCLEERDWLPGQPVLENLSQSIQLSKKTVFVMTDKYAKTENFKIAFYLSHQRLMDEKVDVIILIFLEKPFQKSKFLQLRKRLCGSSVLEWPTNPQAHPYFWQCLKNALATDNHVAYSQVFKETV
The experiment is described as follows: PBMC assay for TLR7 (IFNα in supernatants by ELISA). Set-up: Peripheral blood mononuclear cells (PBMCs) from human blood were isolated; endogenous in cells; host or cells: human PBMCs. The following applies: human PBMCs incubated with compound overnight, MC50 = concentration at which 50% of maximum induction is seen. The method, then: as §2, §3

Experiment [4] addresses T2, TLR7. The experiment is described as follows: MC50 values for TLR7 activity (test not specified; procedures of Gorden et al. and Zhu et al.).
Excerpt: as §1
MC50 values for TLR7 activity are, for example, as shown below: […]

As to `CCCN(CCC)C(=O)C1=Cc2ccc(-c3cncc(CO)c3)cc2N=C(N)C1` [Compound 183, (1E,4E)-2-amino-8-(5-(hydroxymethyl)pyridin-3-yl)-N,N-dipropyl-3H-benzo[b]azepine-4-carboxamide], the figures for the EC50 in experiment [1], in experiment [2] and in experiment [3] were 8 nM, 1 to 100 nM and 1000 to 10000 nM, respectively.

For `CCCN(CCC)C(=O)C1=Cc2ccc(-c3ccc(OCC(=O)OCC)cc3)cc2N=C(N)C1` [Compound 197, Ethyl 2-(4-((1E,4E)-2-amino-4-(dipropylcarbamoyl)-3H-benzo[b]azepin-8-yl)phenoxy)acetate], the EC50 in experiment [2] lay in the range of 100 to 1000 nM; in experiment [3], 1000 to 10000 nM.

Take `CCOC(=O)C1=Cc2ccc(-c3cncc(CO)c3)cc2N=C(N)C1` [Compound 199, (1E,4E)-ethyl 2-amino-8-(5-(hydroxymethyl)pyridin-3-yl)-3H-benzo[b]azepine-4-carboxylate]: the EC50 in experiment [2] lay in the range of 1 to 100 nM; in experiment [3], 1000 to 10000 nM.

Consider `CCCN(CCCO)C(=O)C1=Cc2ccc(-c3ccc(CC(=O)OC)cc3)cc2N=C(N)C1` [Compound 213, Methyl 2-(4-((1E,4E)-2-amino-4-((3-hydroxypropyl)(propyl)carbamoyl)-3H-benzo[b]azepin-8-yl)phenyl)acetate], for which the results for the EC50 in experiment [2] and in experiment [3] were 100 to 1000 nM and 1000 to 10000 nM, respectively.

Turning to `CCCN(CCCO)C(=O)C1=Cc2ccc(-c3ccc(CC(=O)OCC)cc3)cc2N=C(N)C1` [Compound 214, Ethyl 2-(4-((1E,4E)-2-amino-4-((3-hydroxypropyl)(propyl)carbamoyl)-3H-benzo[b]azepin-8-yl)phenyl)acetate], the EC50 in experiment [1] is 54 nM; in experiment [2] it was 1 to 100 nM; in experiment [3], 1000 to 10000 nM.

On to `CCCN(CCCO)C(=O)C1=Cc2ccc(-c3ccc(CC(=O)OC(C)C)cc3)cc2N=C(N)C1` [Compound 215, Isopropyl 2-(4-((1E,4E)-2-amino-4-((3-hydroxypropyl)(propyl)carbamoyl)-3H-benzo[b]azepin-8-yl)phenyl)acetate], for which the EC50 was 1 to 100 nM in experiment [2] and 10000 to 100000 nM in experiment [3].

As for `CCCN(CCCO)C(=O)C1=Cc2ccc(-c3ccc(CC(=O)OCC(C)C)cc3)cc2N=C(N)C1` [Compound 216, Isobutyl 2-(4-((1E,4E)-2-amino-4-((3-hydroxypropyl)(propyl)carbamoyl)-3H-benzo[b]azepin-8-yl)phenyl)acetate], the EC50 is 1 to 100 nM in experiment [2] and 10000 to 100000 nM in experiment [3].

As for `CCCN(CCCO)C(=O)C1=Cc2ccc(-c3ccc(CCC(=O)OCC(C)C)cc3)cc2N=C(N)C1` [Compound 219, Isobutyl 3-(4-((1E,4E)-2-amino-4-((3-hydroxypropyl)(propyl)carbamoyl)-3H-benzo[b]azepin-8-yl)phenyl)propanoate], the EC50 in experiment [2] and in experiment [3] was 1000 to 10000 nM throughout.

On to `CCCN(CCCO)C(=O)C1=Cc2ccc(-c3ccc4c(c3)C(=O)OC4)cc2N=C(N)C1` [Compound 222, (1E,4E)-2-Amino-N-(3-hydroxypropyl)-8-((3-oxo-1,3-dihydroisobenzofuran-5-yl)-N-propyl-3H-benzo[b]azepine-4-carboxamide], for which the EC50 is 33 nM in experiment [1], 358 nM in experiment [4], 1 to 100 nM in experiment [2] and 100 to 1000 nM in experiment [3].

Turning to `CCCN(CCC)C(=O)C1=Cc2ccc(-c3ccc(C4CCOC4=O)cc3)cc2N=C(N)C1` (stereo not drawn) [Compound 223, (1E,4E)-2-Amino-8-(4-(2-oxotetrahydrofuran-3-yl)phenyl)-N,N-dipropyl-3H-benzo[b]azepine-4-carboxamide], the values for the EC50 in experiment [1], in experiment [2] and in experiment [3] were 195 nM, 100 to 1000 nM and 1000 to 10000 nM, respectively.

Take `CCCN(CCC)C(=O)C1=Cc2ccc(-c3ccc(C(O)CO)cc3)cc2N=C(N)C1` (stereo not drawn) [Compound 224, (1E,4E)-2-amino-8-(4-(1,2-dihydroxyethyl)phenyl)-N,N-dipropyl-3H-benzo[b]azepine-4-carboxamide]: the EC50 in experiment [1] is 363 nM; in experiment [2], 100 to 1000 nM; in experiment [3], 10000 to 100000 nM.

Turning to `CCCN(CCC)C(=O)C1=Cc2ccc(-c3ccc(C4COC(=O)O4)cc3)cc2N=C(N)C1` (stereo not drawn) [Compound 225, (1E,4E)-2-amino-8-(4-(2-oxo-1,3-dioxolan-4-yl)phenyl)-N,N-dipropyl-3H-benzo[b]azepine-4-carboxamide], the EC50 in experiment [2] was in the range of 100 to 1000 nM; in experiment [3], 10000 to 100000 nM.
